Test results as given in ChEMBL document CHEMBL1201862, “PubChem BioAssay data set” (2004).
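Assay format: 96-well plates, 48-hour exposure. Abbreviation: GI50, concentration required for 50% inhibition of growth.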 The source made the active and inactive calls. Cut-off read from the data, not from the text of the source: active = GI50 up to about 1.1 µM and inactive = higher.

What was measured:
Test in all cases: NCI tumour cell line growth inhibition, 48 h
COLO 205 = system: COLO 205
HCT-116 = system: HCT-116
HOP-62 = system: HOP-62
HOP-92 = system: HOP-92
HT-29 = system: HT-29
K562 = system: K562
KM-20L2 = system: KM-20L2
KM12 = system: KM12
OVCAR-8 = system: OVCAR-8
RPMI-8226 = system: RPMI-8226
SF-268 = system: SF-268
SF-295 = system: SF-295
U-251 = system: U-251
UACC-62 = system: UACC-62
CAKI-1 = system: CAKI-1
Malme-3M = system: Malme-3M
A498 = system: A498
DU-145 = system: DU-145
MDA-N = system: MDA-N
PC-3 = system: PC-3

Measured: GI50

COC(=O)N/N=C/c1oc(-c2cccc([N+](=O)[O-])c2)c(-c2cccc([N+](=O)[O-])c2)c1[N+](=O)[O-]
inactive: COLO 205 > 100 µM | HCT-116 > 100 µM | HOP-62 > 100 µM | HOP-92 49.3 µM | HT-29 > 100 µM | K562 26.5 µM | KM-20L2 > 100 µM | KM12 > 100 µM | OVCAR-8 > 100 µM | RPMI-8226 30.1 µM | SF-268 > 100 µM | SF-295 > 100 µM | U-251 > 100 µM | UACC-62 59.8 µM

C[P+](C)(C)c1ccccc1
inactive: CAKI-1 > 100 µM | COLO 205 > 100 µM | HCT-116 > 100 µM | HOP-62 > 100 µM | HOP-92 > 100 µM | HT-29 > 100 µM | K562 > 100 µM | KM-20L2 > 100 µM | KM12 > 100 µM | Malme-3M > 100 µM | OVCAR-8 > 100 µM | RPMI-8226 > 100 µM | SF-268 > 100 µM | SF-295 > 100 µM | U-251 > 100 µM | UACC-62 > 100 µM

O=C(Nc1cc(Cl)ccc1Cl)c1cc2cccc(Br)c2oc1=O
inactive: COLO 205 > 100 µM | HCT-116 > 100 µM | HOP-62 47.2 µM | HT-29 > 100 µM | K562 > 100 µM | KM-20L2 > 100 µM | KM12 > 100 µM | Malme-3M > 100 µM | OVCAR-8 57.1 µM | RPMI-8226 > 100 µM | SF-295 63.4 µM | U-251 70.5 µM | UACC-62 > 100 µM

C/C(CC(=O)Nc1cccc([N+](=O)[O-])c1)=N\NC(=O)C[n+]1ccccc1
inactive: COLO 205 > 100 µM | HCT-116 > 100 µM | HOP-62 > 100 µM | HOP-92 > 100 µM | HT-29 > 100 µM | KM-20L2 > 100 µM | KM12 > 100 µM | Malme-3M > 100 µM | OVCAR-8 > 100 µM | RPMI-8226 > 100 µM | SF-268 > 100 µM | SF-295 > 100 µM | U-251 > 100 µM | UACC-62 > 100 µM

CCN(CC)CC(=O)NC1c2ccccc2Oc2ccccc21
inactive: COLO 205 > 100 µM | HCT-116 > 100 µM | HOP-62 > 100 µM | HT-29 > 100 µM | K562 > 100 µM | KM-20L2 > 100 µM | OVCAR-8 > 100 µM | RPMI-8226 > 100 µM | SF-268 > 100 µM | U-251 > 100 µM | UACC-62 > 100 µM

CN(C(=O)c1ccc(Cl)s1)C(=S)N(C)C(=O)c1ccc(Cl)s1
inactive: A498 > 10 µM | CAKI-1 > 10 µM | COLO 205 > 10 µM | DU-145 > 10 µM | HCT-116 > 10 µM | HOP-62 > 10 µM | HOP-92 > 10 µM | HT-29 > 10 µM | K562 > 10 µM | KM12 > 10 µM | MDA-N > 10 µM | Malme-3M > 10 µM | OVCAR-8 > 10 µM | PC-3 > 10 µM | RPMI-8226 > 10 µM | SF-268 > 10 µM | SF-295 > 10 µM | U-251 > 10 µM | UACC-62 > 10 µM

Cc1cc(Cl)ccc1NC(=O)C(=O)Cc1nc2ccc(C(=O)c3ccccc3)cc2nc1O
inactive: CAKI-1 > 100 µM | COLO 205 > 100 µM | HCT-116 > 100 µM | HOP-62 92 µM | HOP-92 20.4 µM | HT-29 > 100 µM | KM-20L2 > 100 µM | KM12 42.5 µM | Malme-3M > 100 µM | OVCAR-8 > 100 µM | SF-268 > 100 µM | SF-295 95.1 µM | UACC-62 70 µM

CSc1cc(N)ccc1/N=N/c1ccc(S(N)(=O)=O)cc1
inactive: A498 48 µM | CAKI-1 36.1 µM | COLO 205 25.8 µM | DU-145 34.9 µM | HCT-116 30.5 µM | HOP-62 29.4 µM | HOP-92 21.8 µM | HT-29 30.3 µM | K562 38.1 µM | KM12 30.4 µM | MDA-N 61.7 µM | Malme-3M 24.7 µM | OVCAR-8 22.3 µM | PC-3 32.7 µM | RPMI-8226 16.4 µM | SF-268 37.8 µM | SF-295 22.1 µM | U-251 26.9 µM | UACC-62 15.9 µM

CC1(C)C2CCC1(CS(=O)(=O)Nc1ccccc1)C(=O)C2 (stereo not given)
inactive: A498 > 100 µM | CAKI-1 > 100 µM | COLO 205 > 100 µM | DU-145 > 100 µM | HCT-116 > 100 µM | HOP-62 > 100 µM | HOP-92 > 100 µM | HT-29 > 100 µM | K562 > 100 µM | KM12 > 100 µM | MDA-N > 100 µM | Malme-3M > 100 µM | OVCAR-8 > 100 µM | PC-3 > 100 µM | RPMI-8226 > 100 µM | SF-268 > 100 µM | SF-295 > 100 µM | U-251 > 100 µM | UACC-62 > 100 µM

COc1ccc(C2(CC(C)O)SCCCS2)cc1 (stereo not given)
inactive: A498 > 100 µM | CAKI-1 > 100 µM | COLO 205 > 100 µM | DU-145 > 100 µM | HCT-116 > 100 µM | HOP-62 > 100 µM | HOP-92 > 100 µM | HT-29 > 100 µM | K562 > 100 µM | KM12 > 100 µM | MDA-N > 100 µM | Malme-3M > 100 µM | OVCAR-8 > 100 µM | PC-3 92.7 µM | RPMI-8226 > 100 µM | SF-268 > 100 µM | SF-295 > 100 µM | U-251 > 100 µM | UACC-62 > 100 µM

O=S(=O)(O)CCSSCCS(=O)(=O)O
inactive: A498 > 1000 µM | CAKI-1 > 1000 µM | COLO 205 > 1000 µM | DU-145 > 1000 µM | HCT-116 > 1000 µM | HOP-62 > 1000 µM | HOP-92 > 1000 µM | HT-29 > 1000 µM | K562 > 1000 µM | KM12 > 1000 µM | MDA-N > 1000 µM | Malme-3M > 1000 µM | OVCAR-8 > 1000 µM | PC-3 > 1000 µM | RPMI-8226 > 1000 µM | SF-268 > 1000 µM | SF-295 > 1000 µM | U-251 > 1000 µM | UACC-62 > 1000 µM

COc1ccc(CNc2nc3ccccc3nc2C(=O)O)cc1OC
inactive: A498 91.2 µM | CAKI-1 > 100 µM | COLO 205 > 100 µM | DU-145 > 100 µM | HCT-116 > 100 µM | HOP-62 > 100 µM | HOP-92 17.1 µM | HT-29 > 100 µM | K562 > 100 µM | KM12 > 100 µM | MDA-N > 100 µM | Malme-3M > 100 µM | OVCAR-8 > 100 µM | PC-3 > 100 µM | RPMI-8226 > 100 µM | SF-268 > 100 µM | SF-295 > 100 µM | U-251 97.7 µM | UACC-62 > 100 µM
